In patent US12422427B2, “Compounds for treatment of diseases and methods of screening therefor” (Max-Planck-Gesellschaft zur Förderung der Wissenschaften …, priority 2018, dated 2025):

What was measured:
[1] = target: T1, FUS low complexity domain (residues 1 to 163) (Homo sapiens, UniProt P35637); test: 1H-15N HSQC NMR of FUS low complexity domain with compound; assay type: binding; conditions: 500 μM compound
T1 construct: untagged FUS low complexity domain (residues 1 to 163) expressed, purified and analysed; made in house
T1 sequence (P35637 1-163): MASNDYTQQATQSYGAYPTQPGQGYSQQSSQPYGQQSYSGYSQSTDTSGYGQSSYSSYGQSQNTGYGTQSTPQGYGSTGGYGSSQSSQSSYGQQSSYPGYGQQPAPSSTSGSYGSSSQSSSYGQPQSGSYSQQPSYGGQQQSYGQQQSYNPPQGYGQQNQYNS
Procedure: Finally, mechanistic detail was analyzed at the sub-molecular level by using NMR of the FUS prion-like N-terminal LCD to determine putative sites of lipoamide interaction. The LCD is able to phase separate to form condensates in vitro and the individual residues can be resolved and assigned in a ^1H-^15N heteronuclear single quantum coherence spectrum. ^1H-^15N analyses reveal a change in environment of individual residues as indicated by their corresponding chemical shifts. The magnitude of chemical shift changes were compared with and without both lipoamide or mitoxantrone. […] This leaves several possibilities: Perhaps lipoamide interacts with the FUS LCD only when phase separated, potentially reducing viscosity, or interacts with the condensate phase boundary, perhaps increasing surface tension. Such interactions may reduce formation or expansion of aggregated forms of FUS involved in condensate hardening and reduced liquidity.
For analysis of compound interaction with FUS untagged FUS low complexity domain (residues 1 to 163) expressed, purified and analysed using ^1H-^15N heteronuclear single quantum coherence NMR and sample conditions previously described^14 in the presence of 500 μM compound or equivalent DMSO solvent control (1%).

[2] = system: P bodies, Cajal bodies, PML bodies, DNA damage foci, nucleolus; test: Effect on other non-membrane bound compartments in HeLa GFP marker lines; assay type: cell-based
Procedure: FIG. 4A) Images of HeLa cells expressing Protein GFP markers of other non-membrane bound compartments subject to 1 h treatment with 10 μM compound (or DMSO control). Where unclear, the position of nuclei is indicated with a dotted outline. […] FIG. 4B) Recruitment of FUS GFP to sites of UV laser-induced DNA damage in iPS cells after 1 h treatment with compound followed by 1 h arsenate stress.
Stress granules are one of several, similar, cytoplasmic RNA-containing liquid-like compartments. […] Several stress granule proteins also form nuclear bodies: nuclear paraspeckles, and foci at the sites of DNA damage. There are also many other nuclear liquid-like compartments. It was then asked whether lipoamide also affected these other bodies, using a panel of cell lines expressing GFP fusions. For this analysis, mitoxantrone was included as a representative of the heterotri-/tetracyclic compound class of hits (FIG. 1F). An overly-broad effect on liquid-like compartments would likely cause side-effects for a therapeutic.
The action of lipoamide is therefore specific to the signaling and/or physical chemistry driving stress granule formation, stress granule phase separation, and/or a specific signaling route. Stress granules normally form and dissolve rapidly in comparison to many other compartments.

[3] = system: FUS GFP; test: Ex vivo DNA cut assay: FUS GFP recruitment to UV laser-induced DNA damage; assay type: cell-based, human
Excerpt: FUS is recruited to sites of DNA damage, and a potential mechanism contributing to ALS pathogenesis is reduced DNA damage response due to sequestration of FUS in the cytoplasm in stress granules. Strong association of FUS nuclear localization (NLS) mutations (e.g., P525L) with familial ALS mutations supports this hypothesis. The inventors therefore tested whether lipoamide affect FUS recruitment to sites of DNA damage induced by focused UV laser irradiation site, using arsenate-stressed iPSCs expressing FUS GFP (FIG. 4B). […] The action of lipoamide is therefore specific to cytoplasmic FUS liquid-like compartments, a therapeutically useful feature.
UV micro-irradiation of live cells was performed to induce DNA damage. KOLF iPS MNs expressing […] were […]. A single point in the nucleus was subject to 3 UV pulses as described for FRAP, but at 10% laser power. GFP fluorescence was imaged at 1 Hz, and intensity of response was analysed in ImageJ.

[4] = target: T2, FUS GFP (Homo sapiens, UniProt P35637); test: In vitro purified FUS GFP droplet screen; assay type: biochemical; conditions: low salt conditions, 1 mM DTT, up to 100 μM compound
T2 construct: His MBP (N, cleaved yes); made in house; host or cells: baculovirus/insect cell expression system
T2 sequence (P35637 1-526): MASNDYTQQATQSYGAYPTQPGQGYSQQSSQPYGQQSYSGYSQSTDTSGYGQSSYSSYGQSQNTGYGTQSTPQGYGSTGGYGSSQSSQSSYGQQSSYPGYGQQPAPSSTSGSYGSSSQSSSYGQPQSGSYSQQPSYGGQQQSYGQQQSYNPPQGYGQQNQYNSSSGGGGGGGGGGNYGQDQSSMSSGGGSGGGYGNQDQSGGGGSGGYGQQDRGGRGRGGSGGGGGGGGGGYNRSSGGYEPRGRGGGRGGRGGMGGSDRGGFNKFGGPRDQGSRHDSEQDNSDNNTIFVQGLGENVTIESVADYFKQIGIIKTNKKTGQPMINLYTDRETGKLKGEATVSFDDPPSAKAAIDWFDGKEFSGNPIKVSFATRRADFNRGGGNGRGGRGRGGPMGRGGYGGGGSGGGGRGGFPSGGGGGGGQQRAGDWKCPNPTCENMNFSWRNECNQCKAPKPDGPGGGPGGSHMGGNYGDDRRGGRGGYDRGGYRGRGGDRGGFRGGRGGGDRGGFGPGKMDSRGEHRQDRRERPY
Procedure: Compounds that can directly interact with FUS were of primary interest, therefore the inventors performed a follow up screen for action of compounds on FUS droplet formation in vitro (FIG. 1D). […] Hits were identified by the effect on number of FUS droplets formed and the partition of FUS into the droplets formed under low salt conditions in vitro in the presence of 1 mM DTT to mimic the reducing intracellular environment (FIG. 1E).
The effect of compounds on FUS GFP droplets in vitro was assessed in 384 well plate format. The compound volume (in DMSO) necessary for 1, 3, 10, 30 or 100 μM final concentration were added by acoustic dispensing (Labcyte Echo 550) to 96 well plate wells containing 3 μl FUS GFP diluted in 50 mM Tris. HCl pH 7.4, 1 mM DTT (for low salt assays). Final DMSO concentration was 0.01 to 1%. Using a Freedom Evo 200 liquid handling workstation (TECAN) the FUS GFP/compound mixture was diluted in 7 μl assay buffer containing 50 mM Tris. HCl pH 7.4, 1 mM DTT, 50 mM KCl and 0.7 μM FUS GFP. Compound/FUS GFP and assay buffer were mixed by a standardised pipetting procedure then split to four wells in clear bottom 384 well plates then immediately imaged using a CellVoyager CV7000 automated spinning disc confocal microscope (as above). […] Droplet number and FUS GFP partition into droplets were analysed with a fixed intensity threshold using ImageJ.

[5] = system: HeLa cells expressing FUS GFP; test: HeLa cell compound dose responses (FUS GFP, arsenate stress); assay type: cell-based; conditions: 1 h pre-treatment, 1 h arsenate stress
Procedure: Small dilution steps rather than concentration replicates were selected as it provides greater statistical power from a set number of samples. Final DMSO concentration was 0.08% in all samples, and each plate included at least 12 control wells with 0.08% DMSO. Cytoplasmic FUS droplet number and nuclear/cytoplasm partition of FUS were analysed using custom macros in ImageJ. Nuclei were identified by intensity thresholding of the blue fluorescence image following a 5 px Gaussian blur. Cytoplasmic FUS droplets by intensity thresholding of the green image following a 10 px weight 0.9 unsharp filter masked by the thresholded nuclei, and nuclear FUS droplets by intensity thresholding of the green image following a 5 px weight 0.9 unsharp filter and 10 px rolling ball background subtraction masked to only include thresholded nuclei. The ratio of cytoplasmic FUS drops to nuclei was taken as cytoplasmic FUS droplets per cell per field of view, and p, the ratio of partition of FUS to the nucleus and the cytoplasm, was derived from a=Vn/vt, the ratio of nuclear to total green signal per field of view, where p=a/(1−a). […] Six fields of view were captured and analysed per condition.

`O=C1c2c(O)ccc(O)c2C(=O)c2c(NCCNCCO)ccc(NCCNCCO)c21` [mitoxantrone, reference compound] was tested. Which “chemical shift changes of FUS LCD residues” value [1] did it give?
Its value is “weak shifts across the LCD”.

What about the “disruption of P bodies (DCP1A), Cajal bodies (COIL), DNA damage foci (TRP53BP1), nucleolus (NCB1)” value ([2]; 1 h treatment with 10 μM compound) of the same molecule?
Its value is “non-stress granule specific effects”.

What about the “localization of P-body, PML body and DNA damage focus proteins” value ([2]; conditions that would dissolve stress granules) of the same molecule?
The value was “affected all of these compartments to some extent”.

And the “FUS GFP recruitment to sites of DNA damage” value ([3]; concentrations not sufficient to dissolve cytoplasmic FUS droplets)?
Its value is “blocked recruitment of FUS GFP to sites of DNA damage”.

And the “formation of nuclear FUS droplets at the sites of DNA damage (FIG. 4B legend)” value ([3]; iPS cells, arsenate stress)?
The value was “prevents formation of nuclear FUS droplets”.

And the “FUS GFP droplet number, partition into droplets and droplet size” value [4]?
Its value is “fewer smaller drops”.

And the “nuclear/cytoplasm FUS partition, dose response” value [5]?
Its value is “decreased nuclear/cytoplasm FUS partition”.

And the “stress granule number, dose response” value [5]?
The value was “reducing stress granule number”.
